Holding throughout (experiment): kinome screen (33PanQinase)
Holding throughout (assay type): biochemical

One experiment addresses T1, CDK6/CycD2 (Homo sapiens, UniProt Q00534).
T1 construct: purchased Reaction Biology Europe GmbH (formerly ProQinase)
As to the method:
(§1) The Kinome Screening was performed by Reaction Biology Europe GmbH (http://reactionbiology.com; Freiburg i. Br., Germany).

The target of another experiment is T2, ALK (Homo sapiens, UniProt Q9UM73).
T2 construct: purchased Reaction Biology Europe GmbH (formerly ProQinase)
T2 sequence (Q9UM73 19-1620): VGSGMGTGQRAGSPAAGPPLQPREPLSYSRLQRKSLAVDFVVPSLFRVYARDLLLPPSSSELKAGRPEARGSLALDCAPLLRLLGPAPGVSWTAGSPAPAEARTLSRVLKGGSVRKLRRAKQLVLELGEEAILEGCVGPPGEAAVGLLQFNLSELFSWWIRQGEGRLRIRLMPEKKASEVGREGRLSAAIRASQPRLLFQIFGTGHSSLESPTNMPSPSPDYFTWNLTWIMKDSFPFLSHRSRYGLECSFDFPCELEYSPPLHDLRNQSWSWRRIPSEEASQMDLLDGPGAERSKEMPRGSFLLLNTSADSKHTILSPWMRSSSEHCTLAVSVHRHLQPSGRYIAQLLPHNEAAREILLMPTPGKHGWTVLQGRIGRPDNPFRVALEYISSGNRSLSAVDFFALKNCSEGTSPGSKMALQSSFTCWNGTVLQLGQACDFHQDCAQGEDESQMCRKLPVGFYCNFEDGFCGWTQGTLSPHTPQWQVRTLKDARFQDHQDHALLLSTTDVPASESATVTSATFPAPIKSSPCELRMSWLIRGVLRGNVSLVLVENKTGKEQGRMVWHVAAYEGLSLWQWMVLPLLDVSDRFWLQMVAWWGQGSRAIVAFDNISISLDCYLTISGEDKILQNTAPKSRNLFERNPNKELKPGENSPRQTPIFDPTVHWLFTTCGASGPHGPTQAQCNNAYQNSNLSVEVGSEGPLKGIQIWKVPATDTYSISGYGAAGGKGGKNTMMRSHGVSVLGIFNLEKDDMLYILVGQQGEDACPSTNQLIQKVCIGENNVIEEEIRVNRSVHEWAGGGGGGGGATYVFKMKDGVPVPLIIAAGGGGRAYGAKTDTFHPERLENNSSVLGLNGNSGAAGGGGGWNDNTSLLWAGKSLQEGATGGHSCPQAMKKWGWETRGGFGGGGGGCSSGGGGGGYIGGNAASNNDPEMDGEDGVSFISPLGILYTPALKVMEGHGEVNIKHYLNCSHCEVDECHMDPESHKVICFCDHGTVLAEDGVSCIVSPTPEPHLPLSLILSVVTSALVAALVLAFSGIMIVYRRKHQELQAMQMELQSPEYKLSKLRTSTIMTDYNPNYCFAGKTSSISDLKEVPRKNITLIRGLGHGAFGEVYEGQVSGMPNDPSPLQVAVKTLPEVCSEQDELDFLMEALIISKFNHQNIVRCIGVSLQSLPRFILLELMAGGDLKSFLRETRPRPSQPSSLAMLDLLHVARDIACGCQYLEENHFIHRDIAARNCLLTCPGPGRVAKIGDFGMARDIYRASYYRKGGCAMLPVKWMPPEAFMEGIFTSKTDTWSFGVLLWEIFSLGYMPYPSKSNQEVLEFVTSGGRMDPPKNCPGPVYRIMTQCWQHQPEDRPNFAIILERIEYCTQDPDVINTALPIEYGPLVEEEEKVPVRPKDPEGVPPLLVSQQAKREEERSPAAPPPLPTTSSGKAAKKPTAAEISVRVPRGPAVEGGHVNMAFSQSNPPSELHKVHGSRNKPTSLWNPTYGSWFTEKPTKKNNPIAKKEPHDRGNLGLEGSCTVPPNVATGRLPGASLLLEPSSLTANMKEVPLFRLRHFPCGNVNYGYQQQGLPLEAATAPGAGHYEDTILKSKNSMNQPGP
The procedure: as §1

The target of the next experiment is T3, CDK8/CycC (Homo sapiens, UniProt P49336).
T3 construct: purchased Reaction Biology Europe GmbH (formerly ProQinase)
T3 sequence (P49336 whole entry): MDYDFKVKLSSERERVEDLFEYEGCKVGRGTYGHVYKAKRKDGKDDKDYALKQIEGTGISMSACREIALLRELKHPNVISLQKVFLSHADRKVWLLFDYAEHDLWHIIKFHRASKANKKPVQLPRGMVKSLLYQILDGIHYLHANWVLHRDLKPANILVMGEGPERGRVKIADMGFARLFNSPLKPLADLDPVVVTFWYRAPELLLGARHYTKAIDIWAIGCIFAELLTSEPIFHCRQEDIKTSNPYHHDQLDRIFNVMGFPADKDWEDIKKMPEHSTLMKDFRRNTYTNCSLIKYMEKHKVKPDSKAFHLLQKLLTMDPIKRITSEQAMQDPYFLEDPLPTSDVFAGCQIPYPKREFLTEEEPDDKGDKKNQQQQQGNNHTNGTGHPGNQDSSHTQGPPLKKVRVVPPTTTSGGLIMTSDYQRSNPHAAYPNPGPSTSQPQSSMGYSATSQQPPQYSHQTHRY
T3 sequence (P24863 whole entry partner): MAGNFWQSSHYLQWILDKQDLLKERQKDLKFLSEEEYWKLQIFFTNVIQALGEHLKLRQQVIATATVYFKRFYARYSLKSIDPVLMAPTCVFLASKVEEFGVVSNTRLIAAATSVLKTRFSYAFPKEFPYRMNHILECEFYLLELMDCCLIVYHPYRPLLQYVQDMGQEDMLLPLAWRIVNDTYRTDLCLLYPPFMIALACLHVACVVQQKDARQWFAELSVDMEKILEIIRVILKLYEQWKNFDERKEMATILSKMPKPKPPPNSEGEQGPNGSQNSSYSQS
The procedure:
as §1

A further experiment has as its target T4, MAP3K7/MAP3K7IP1 (Homo sapiens, UniProt O43318).
T4 construct: purchased Reaction Biology Europe GmbH (formerly ProQinase)
T4 sequence (O43318 1-303 limits assumed): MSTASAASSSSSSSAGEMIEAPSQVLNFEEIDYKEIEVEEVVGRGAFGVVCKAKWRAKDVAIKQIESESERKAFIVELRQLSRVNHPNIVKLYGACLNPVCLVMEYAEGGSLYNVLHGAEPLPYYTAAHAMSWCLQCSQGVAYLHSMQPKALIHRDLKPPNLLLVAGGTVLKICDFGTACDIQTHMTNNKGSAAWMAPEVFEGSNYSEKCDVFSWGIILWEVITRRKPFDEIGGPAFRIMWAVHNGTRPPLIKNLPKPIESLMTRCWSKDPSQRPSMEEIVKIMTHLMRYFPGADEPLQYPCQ
T4 sequence (Q15750 437-504 partner limits assumed): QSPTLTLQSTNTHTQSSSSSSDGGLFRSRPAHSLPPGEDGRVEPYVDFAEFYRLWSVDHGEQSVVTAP
The procedure: as §1

A further experiment has as its target T5, MEKK3 (Homo sapiens, UniProt Q99759).
T5 construct: purchased Reaction Biology Europe GmbH (formerly ProQinase)
T5 sequence (Q99759 1-626): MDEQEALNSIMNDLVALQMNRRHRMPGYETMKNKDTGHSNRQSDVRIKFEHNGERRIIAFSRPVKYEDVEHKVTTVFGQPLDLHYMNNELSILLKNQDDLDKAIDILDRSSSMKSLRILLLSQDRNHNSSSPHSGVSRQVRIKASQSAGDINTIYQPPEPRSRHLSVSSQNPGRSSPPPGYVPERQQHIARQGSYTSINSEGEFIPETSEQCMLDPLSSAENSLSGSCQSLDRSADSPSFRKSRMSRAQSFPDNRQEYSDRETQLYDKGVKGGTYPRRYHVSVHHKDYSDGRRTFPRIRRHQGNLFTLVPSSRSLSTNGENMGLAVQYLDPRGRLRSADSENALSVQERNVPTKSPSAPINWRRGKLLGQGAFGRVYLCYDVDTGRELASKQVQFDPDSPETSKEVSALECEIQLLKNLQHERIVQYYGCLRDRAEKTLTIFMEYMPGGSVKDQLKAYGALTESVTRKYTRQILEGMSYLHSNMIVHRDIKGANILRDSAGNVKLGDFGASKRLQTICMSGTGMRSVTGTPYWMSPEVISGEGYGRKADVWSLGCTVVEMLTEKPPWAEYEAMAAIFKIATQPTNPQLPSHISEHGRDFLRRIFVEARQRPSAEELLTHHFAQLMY
The procedure:
as §1

In a further experiment the target is T6, DNAPK (Homo sapiens, UniProt P78527).
T6 construct: purchased Reaction Biology Europe GmbH (formerly ProQinase)
As to the method: as §1

For a further experiment, the target named is T7, PBK (Homo sapiens, UniProt Q96KB5).
T7 construct: purchased Reaction Biology Europe GmbH (formerly ProQinase)
T7 sequence (Q96KB5 1-322): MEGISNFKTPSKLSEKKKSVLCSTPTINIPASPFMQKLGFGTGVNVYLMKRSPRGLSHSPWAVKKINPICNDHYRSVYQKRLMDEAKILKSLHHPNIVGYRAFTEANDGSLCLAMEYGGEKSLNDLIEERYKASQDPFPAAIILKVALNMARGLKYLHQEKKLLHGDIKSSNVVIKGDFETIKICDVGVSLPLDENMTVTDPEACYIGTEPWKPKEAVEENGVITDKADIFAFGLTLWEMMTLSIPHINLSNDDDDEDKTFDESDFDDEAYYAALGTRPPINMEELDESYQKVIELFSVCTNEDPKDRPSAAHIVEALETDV
As to the method:
as §1

The target in the next experiment is T8, CDK2/CycA2 (Homo sapiens, UniProt P24941).
T8 construct: purchased Reaction Biology Europe GmbH (formerly ProQinase)
As to the method:
as §1

The target in another experiment is T9, PKMzeta (Homo sapiens, UniProt Q05513).
T9 construct: PKMzeta; purchased Reaction Biology Europe GmbH (formerly ProQinase)
T9 sequence (Q05513 184-592 limits assumed): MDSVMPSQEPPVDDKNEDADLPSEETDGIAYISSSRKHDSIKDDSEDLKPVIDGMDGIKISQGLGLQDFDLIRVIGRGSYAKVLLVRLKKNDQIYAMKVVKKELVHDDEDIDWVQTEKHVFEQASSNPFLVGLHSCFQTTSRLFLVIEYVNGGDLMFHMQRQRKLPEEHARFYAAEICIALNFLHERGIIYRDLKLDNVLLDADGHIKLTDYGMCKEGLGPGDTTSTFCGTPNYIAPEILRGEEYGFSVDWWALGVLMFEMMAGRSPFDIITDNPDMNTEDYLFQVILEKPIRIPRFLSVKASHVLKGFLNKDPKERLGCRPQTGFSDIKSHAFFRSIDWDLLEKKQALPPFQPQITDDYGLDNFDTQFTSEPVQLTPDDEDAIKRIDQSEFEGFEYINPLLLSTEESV
As to the method:
as §1

A further experiment concerns the target T10, WEE1 (Homo sapiens, UniProt P30291).
T10 construct: purchased Reaction Biology Europe GmbH (formerly ProQinase)
The procedure: as §1

For another experiment, the target named is T11, CK2α2 (Homo sapiens, UniProt P19784).
T11 construct: purchased Reaction Biology Europe GmbH (formerly ProQinase)
T11 sequence (P19784 whole entry): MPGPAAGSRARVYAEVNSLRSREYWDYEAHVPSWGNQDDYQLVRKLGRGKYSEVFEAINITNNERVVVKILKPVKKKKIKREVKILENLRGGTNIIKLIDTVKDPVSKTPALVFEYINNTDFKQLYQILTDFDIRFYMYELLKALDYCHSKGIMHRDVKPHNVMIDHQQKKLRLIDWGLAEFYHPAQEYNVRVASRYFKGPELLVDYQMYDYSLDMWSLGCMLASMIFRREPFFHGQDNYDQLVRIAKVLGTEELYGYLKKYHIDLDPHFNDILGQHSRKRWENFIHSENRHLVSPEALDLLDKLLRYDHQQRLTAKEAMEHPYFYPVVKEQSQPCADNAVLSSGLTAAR
The procedure: as §1

For another experiment, the target named is T12, AKT1 (Homo sapiens, UniProt P31749).
T12 construct: purchased Reaction Biology Europe GmbH (formerly ProQinase)
T12 sequence (P31749 whole entry): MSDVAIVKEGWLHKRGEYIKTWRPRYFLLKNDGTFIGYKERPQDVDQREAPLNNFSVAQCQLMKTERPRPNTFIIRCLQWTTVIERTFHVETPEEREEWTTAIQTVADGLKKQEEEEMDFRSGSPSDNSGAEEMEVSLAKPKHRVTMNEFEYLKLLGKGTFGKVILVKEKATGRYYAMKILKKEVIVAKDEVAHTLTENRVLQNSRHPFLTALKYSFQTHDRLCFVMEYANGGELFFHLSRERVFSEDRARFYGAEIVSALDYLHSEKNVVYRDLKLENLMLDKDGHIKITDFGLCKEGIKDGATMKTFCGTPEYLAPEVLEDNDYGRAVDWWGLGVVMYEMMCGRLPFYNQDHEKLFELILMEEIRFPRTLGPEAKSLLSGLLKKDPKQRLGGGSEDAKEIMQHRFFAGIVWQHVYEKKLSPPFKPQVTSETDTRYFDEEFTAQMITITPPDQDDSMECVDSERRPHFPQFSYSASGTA
As to the method: as §1

T10 sequence (P30291 whole entry): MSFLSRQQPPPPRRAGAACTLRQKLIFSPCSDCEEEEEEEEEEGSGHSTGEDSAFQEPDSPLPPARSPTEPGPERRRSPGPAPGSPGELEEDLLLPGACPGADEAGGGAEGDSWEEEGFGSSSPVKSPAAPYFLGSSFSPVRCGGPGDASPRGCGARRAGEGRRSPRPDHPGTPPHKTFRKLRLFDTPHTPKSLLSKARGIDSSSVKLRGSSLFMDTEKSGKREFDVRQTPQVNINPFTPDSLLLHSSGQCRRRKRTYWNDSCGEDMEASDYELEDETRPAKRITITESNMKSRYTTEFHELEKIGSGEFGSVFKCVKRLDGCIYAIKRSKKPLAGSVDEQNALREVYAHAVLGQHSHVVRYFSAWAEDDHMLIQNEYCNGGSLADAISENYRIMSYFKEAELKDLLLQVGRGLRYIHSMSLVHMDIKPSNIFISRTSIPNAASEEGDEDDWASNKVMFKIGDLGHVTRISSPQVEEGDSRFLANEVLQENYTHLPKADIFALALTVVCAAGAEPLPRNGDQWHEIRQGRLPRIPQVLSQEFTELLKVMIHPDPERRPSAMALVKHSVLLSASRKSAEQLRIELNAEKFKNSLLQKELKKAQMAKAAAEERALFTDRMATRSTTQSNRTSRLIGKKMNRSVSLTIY
T1 sequence (Q00534 whole entry): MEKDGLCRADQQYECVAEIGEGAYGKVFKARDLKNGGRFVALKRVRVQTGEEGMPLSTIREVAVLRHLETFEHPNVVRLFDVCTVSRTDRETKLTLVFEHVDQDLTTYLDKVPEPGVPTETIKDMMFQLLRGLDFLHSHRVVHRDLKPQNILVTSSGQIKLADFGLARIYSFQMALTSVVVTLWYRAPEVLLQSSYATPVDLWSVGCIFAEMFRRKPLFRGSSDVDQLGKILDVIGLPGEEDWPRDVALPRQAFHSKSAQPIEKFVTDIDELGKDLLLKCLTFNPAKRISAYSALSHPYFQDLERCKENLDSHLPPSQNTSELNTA
T1 sequence (P30279 whole entry partner): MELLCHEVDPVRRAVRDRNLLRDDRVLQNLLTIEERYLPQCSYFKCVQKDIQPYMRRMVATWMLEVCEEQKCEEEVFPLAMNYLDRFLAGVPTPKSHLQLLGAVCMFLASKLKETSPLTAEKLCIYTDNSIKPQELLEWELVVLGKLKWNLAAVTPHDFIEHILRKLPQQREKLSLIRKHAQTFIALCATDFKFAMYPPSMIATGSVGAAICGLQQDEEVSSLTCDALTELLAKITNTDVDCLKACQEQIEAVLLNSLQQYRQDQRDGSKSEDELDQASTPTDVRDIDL

On to `c1ccc(CNc2cc(-c3c[nH]c4ncccc34)ccn2)cc1` [meriolin 36], for which the residual kinase activity is 47 % of control on CDK6/CycD2 (0.3 µM); 10 % of control at CDK6/CycD2 (3 µM); 60 % of control at ALK (0.3 µM); 14 % of control at ALK (3 µM); 5 % of control on CDK8/CycC (0.3 µM); 2 % of control on CDK8/CycC (3 µM). In addition, the residual kinase activity on MAP3K7/MAP3K7IP1 (0.3 µM) was 15 % of control; at MAP3K7/MAP3K7IP1 (3 µM) it was 5 % of control; at MEKK3 (0.3 µM) it was 66 % of control; on MEKK3 (3 µM), 26 % of control; on DNAPK (0.3 µM), 71 % of control; on DNAPK (3 µM) it was 25 % of control. Also, the residual kinase activity is 69 % of control at PBK (0.3 µM); 80 % of control on PBK (3 µM); 1 % of control on CDK2/CycA2 (0.3 µM); 2 % of control on CDK2/CycA2 (3 µM); 89 % of control at PKMzeta (0.3 µM); 68 % of control at PKMzeta (3 µM). In addition, the residual kinase activity at WEE1 (0.3 µM) is recorded as 72 % of control; on WEE1 (3 µM) it was 37 % of control; on CK2α2 (0.3 µM), 91 % of control; on CK2α2 (3 µM) it was 43 % of control; on AKT1 (0.3 µM), 89 % of control; on AKT1 (3 µM), 41 % of control.
As to `COc1ccnc2[nH]cc(-c3cc(N)nc(N)c3)c12` [meriolin 16], the residual kinase activity on CDK6/CycD2 (0.03 µM) is on record as 93 % of control; at CDK6/CycD2 (0.3 µM), 76 % of control; on ALK (0.03 µM) it was 104 % of control; on ALK (0.3 µM) it was 77 % of control; on CDK8/CycC (0.03 µM), 6 % of control; on CDK8/CycC (0.3 µM), 4 % of control. The residual kinase activity is 54 % of control on MAP3K7/MAP3K7IP1 (0.03 µM); 17 % of control at MAP3K7/MAP3K7IP1 (0.3 µM); 106 % of control on MEKK3 (0.03 µM); 90 % of control on MEKK3 (0.3 µM); 100 % of control at DNAPK (0.03 µM); 97 % of control on DNAPK (0.3 µM). Moreover, the residual kinase activity on PBK (0.03 µM) is on record as 95 % of control; at PBK (0.3 µM), 90 % of control; on CDK2/CycA2 (0.03 µM), 18 % of control; at CDK2/CycA2 (0.3 µM), 2 % of control; on PKMzeta (0.03 µM), 97 % of control; at PKMzeta (0.3 µM), 90 % of control. For the same compound, the residual kinase activity at WEE1 (0.03 µM) is on record as 80 % of control; at WEE1 (0.3 µM), 99 % of control; on CK2α2 (0.03 µM), 110 % of control; at CK2α2 (0.3 µM), 105 % of control; at AKT1 (0.03 µM) it was 96 % of control; on AKT1 (0.3 µM), 70 % of control.

The record behind these values is publication PMC11167047 (Cell Death Discovery, 2024).
